Experimental data from paper PMC5874699, “Antimicrobial and Antibiofilm Activity of UP-5, an Ultrashort Antimicrobial Peptide Designed Using Only Arginine and Biphenylalanine” (Pharmaceuticals, 2018).
Read-outs that look alike come from different tables or passages of the source. Square brackets hold non-standard residues; d marks the D form. Peptide text beside a SMILES is read from it. Bip = N[C@@H](Cc1ccc(-c2ccccc2)cc1)C(=O)O

Key:
S. aureus (ATCC BAA-41) [1] = type: cell-based, Staphylococcus aureus; settings: ATCC BAA-41, 24 h
Excerpt: (§1) All bacterial susceptibility, biofilm, and synergistic assays of peptides, antibiotics, and peptides-antibiotics combinations used bacterial strains obtained from the American Type Tissue Culture Collection (ATCC, Manassas, VA, USA) that states the mechanism of resistance for each strain according to ATCC number. Gram-positive bacteria were represented by five strains, the wild type strain Staphylococcus aureus (ATCC 29213) and methicillin-resistant S. aureus (MRSA) (ATCC 33591) in addition to clinically isolated strains S. aureus (ATCC BAA-41& 43300) and Enterococcus faecalis (ATCC BAA-2316). The Gram-negative bacteria strains were represented by wild type strains of Escherichia coli (ATCC 25922 & 35218) and Pseudomonas aeruginosa (ATCC 27853) as well as the clinically isolated multidrug-resistant strain P. aeruginosa (ATCC BAA-2114). The bacteria were cultured onto Muller Hinton Agar (Scharlab, S.L, Barcelona, Spain). Mueller Hinton Broth (Oxoid Ltd., Basingstoke, UK) was used to prepare all bacterial suspensions and to dissolve the peptides and the antibiotics. The assay was performed in sterile 96-well polypropylene microtiter plates.
(§2) All bacterial susceptibility assays were conducted according to the microbroth dilution method outlined by the Clinical and Laboratory Standards Institute (CLSI) guidelines.
(§3) Briefly, pre-sterilized MHB was used as a growth medium for organisms obtained from stock media with glycerol. Bacterial cells were grown overnight in MHB and diluted to 10^6 CFU/mL in the same medium prior to use. For peptide, serial concentrations in the range of 0.5–100 μM were prepared. Then, 50 μL of each peptide concentration and 50 µL of diluted bacterial suspension were added to each well of a 96-well microtiter plate. Peptide solutions were prepared by dissolving the peptide in sterile MHB. Then, the plates were incubated overnight in a humidified atmosphere, and at 37 °C. Bacterial growth was determined by measuring the optical density (OD) at λ = 600 nm using an ELISA plate reader (Epoch, BioTek, Winooski, VT, USA) and the minimum inhibitory concentration (MIC) was determined.
(§4) As described in the previous section, the MIC and MBC values of antibiotics employed in this study were determined against subjected bacterial strains via preparing different concentrations of each antibiotic.

S. aureus (ATCC 43300) [2] = type: cell-based, Staphylococcus aureus; settings: ATCC 43300, 24 h
Excerpt: as §1, §2, §3, §4

human erythrocytes = type: cell-based
Experimental: Two milliliters of human blood were placed into a 50 mL centrifuge tube and centrifuged (3000× g). The supernatant was discarded, the cell pellet re-suspended in 48 mL of PBS, and centrifuged as above; this step was repeated twice. Finally, 2 mL of cell pellet were re-suspended in a sterile tube containing 48 mL PBS to reach a final concentration of 4% RBC. […] Positive controls were prepared by adding 5 µL of 0.1% (Triton 100X) to 2 mL of 4% RBC suspension and negative controls were prepared by adding 2 mL of 4% RBC suspension only. All preparations were incubated for 60 min at 37 °C. Next, the tubes were gently vortexed and 1 mL of each sample were removed and placed into sterilized eppendorf tubes and then centrifuged (3000× g). Then, 200 µL of each supernatant was placed into a 96 well-plate. Absorbance was measured at λ = 450 nm with the aid of an ELISA reader. The percentage hemolysis was calculated according to the following equation:(2) % Hemolysis=A−AO/AX−AO×100 where A is the optical density at 450 nm (OD450) of the peptide solution, AO is the OD450 of the negative control (0.9% NaCl) and AX is the OD450 of the positive control (0.1% Triton 10X).

[3] = tested on: Staphylococcus aureus (ATCC 29213); type: cell-based; settings: ATCC 29213, 24 h
Excerpt: as §1, §2, §3, §4

S. aureus (ATCC 29213) = assay: Broth microdilution checkerboard, UP-5 with antibiotics; type: cell-based, Staphylococcus aureus; settings: S. aureus ATCC 29213, checkerboard, triplicate
Excerpt: as §1
(§5) According to the broth microdilution checkerboard technique, the MIC and MBC values of peptide-antibiotics combinations against wild type and multidrug resistant bacterial strains were determined. Serial concentrations of peptide and each antibiotic were prepared in the range of 0.005–100 μM. In each well of a 96-well microtiter plate, 25 μL of each peptide concentration were added to 25 μL of each antibiotic concentration which is followed by adding 50 μL of diluted bacterial suspension (10^6 CFU/mL) to each well. The prepared concentrations of peptide and each antibiotic were arranged into rows and columns, respectively, in a 96-well microtiter plate according the checkerboard technique. Then as described previously (see Section 2.4.1), the procedure was followed. All MIC and MBC determinations of all assays were made in triplicate.
(§6) The fractional inhibitory concentration (FIC) is defined as the inhibitory concentration of the antimicrobial combination divided by that of the single antimicrobial component. To calculate FIC index for peptide-antibiotic combinations, the following equation was used:(1) FIC index=MIC of drug X in combination/MIC of drug X alone+MIC of drug Y in combination/MIC of drug Y alone
(§7) The FIC indices were interpreted as follows: ≤0.5: synergistic activity, 0.5–1: additive activity, 1–4 indifferent, >4: antagonism. Interpretation and assessment of the FIC indices were performed according to the broth microdilution checkerboard technique.

S. aureus (ATCC BAA-41) [4] = assay: as above; type: cell-based, Staphylococcus aureus; settings: S. aureus ATCC BAA-41, checkerboard, triplicate
Excerpt: as §1, §5, §6, §7

S. aureus (ATCC 43300) [5] = assay: as above; type: cell-based, Staphylococcus aureus; settings: S. aureus ATCC 43300, checkerboard, triplicate
Excerpt: as §1, §5, §6, §7

S. aureus (ATCC 33591) = assay: as above; type: cell-based, Staphylococcus aureus; settings: S. aureus ATCC 33591, checkerboard, triplicate
Excerpt: as §1, §5, §6, §7

[6] = UP-5 in combination with Ampicillin
[7] = UP-5 in combination with Chloramphenicol
[8] = UP-5 in combination with Erythromycin
[9] = UP-5 in combination with Levofloxacin
[10] = UP-5 in combination with Rifampicin

N=C(N)NCCC[C@H](NC(=O)[C@H](Cc1ccc(-c2ccccc2)cc1)NC(=O)[C@H](CCCNC(=N)N)NC(=O)[C@H](Cc1ccc(-c2ccccc2)cc1)NC(=O)[C@@H](N)CCCNC(=N)N)C(=O)O [UP-5] (H-R[Bip]R[Bip]R-OH)
MBC Value (S. aureus (ATCC BAA-41) [1]): 15 µM
MIC Value (S. aureus (ATCC BAA-41) [1]): 15 µM
MBC Value (S. aureus (ATCC 43300) [2]): 15 µM
MIC Value (S. aureus (ATCC 43300) [2]): 15 µM
Hemolysis (%) (human erythrocytes; 40 µM): 0.09%
Hemolysis (%) (human erythrocytes; 60 µM): 1.01%
Hemolysis (%) (human erythrocytes; 80 µM): 1.04%
Hemolysis (%) (human erythrocytes; 150 µM): 3.0%
Hemolysis (%) (human erythrocytes; 175 µM): 3.04%
MBC Value [3]: 10 µM
MIC Value [3]: 10 µM
UP-5 MIC in Combination (S. aureus (ATCC 29213); [6]): 0.25 µM
UP-5 MIC in Combination (S. aureus (ATCC 29213); [7]): 2.5 µM
UP-5 MIC in Combination (S. aureus (ATCC 29213); [8]): 10 µM
UP-5 MIC in Combination (S. aureus (ATCC 29213); [9]): 0.125 µM
UP-5 MIC in Combination (S. aureus (ATCC 29213); [10]): 10 µM
UP-5 MIC in Combination (S. aureus (ATCC BAA-41) [4]; [6]): 7.5 µM
UP-5 MIC in Combination (S. aureus (ATCC BAA-41) [4]; [7]): 7.5 µM
UP-5 MIC in Combination (S. aureus (ATCC BAA-41) [4]; [8]): 15 µM
UP-5 MIC in Combination (S. aureus (ATCC BAA-41) [4]; [9]): 15 µM
UP-5 MIC in Combination (S. aureus (ATCC BAA-41) [4]; [10]): 15 µM
UP-5 MIC in Combination (S. aureus (ATCC 43300) [5]; [6]): 7.5 µM
UP-5 MIC in Combination (S. aureus (ATCC 43300) [5]; [7]): 7.5 µM
UP-5 MIC in Combination (S. aureus (ATCC 43300) [5]; [8]): 7.5 µM
UP-5 MIC in Combination (S. aureus (ATCC 43300) [5]; [9]): 0.025 µM
UP-5 MIC in Combination (S. aureus (ATCC 43300) [5]; [10]): 5 µM
UP-5 MIC in Combination (S. aureus (ATCC 33591); [6]): 1.25 µM
UP-5 MIC in Combination (S. aureus (ATCC 33591); [7]): 5 µM
UP-5 MIC in Combination (S. aureus (ATCC 33591); [8]): 0.125 µM
UP-5 MIC in Combination (S. aureus (ATCC 33591); [9]): 0.125 µM
UP-5 MIC in Combination (S. aureus (ATCC 33591); [10]): 0.125 µM
